What all share (assay type): biochemical
For one test, the target named is LRRK2 (WT) (Homo sapiens (Human), UniProt Q5S007). The test is described as follows: LRRK2 Kinase Assay (Adapta). The conditions noted are these: 70 μM ATP, LRRKtide substrate. Here is the method:
(§1) The LRRK2 and LRRK2 G2019S kinase assays were performed using the Adapta™ technology in ThermoFisher Scientific. This experiment was carried out according to the supplier's protocol. Briefly, assay conditions were as follows. The mixture of substrate (LRRKtide) and each kinase was prepared in 50 mM Tris pH 8.5, 0.01% BRIJ-35, 10 mM MgCl2, 1 mM EGTA, 0.02% NaN3. Assays were performed in the presence of 70 μM ATP and 100 μM ATP (KmATP) in LRRK2 and LRRK2 G2019S, respectively. The reaction was progressed at room temperature for 1 hour. Upon completion of kinase reaction, 5 μL of Detection Mix was added and after 60 min incubation time, the emission ratio of 665/615 nm was calculated.

Another test deals with LRRK2 G2019S (Homo sapiens (Human), UniProt Q5S007, G2019S). The test is described as follows: LRRK2 G2019S Kinase Assay (Adapta). The settings on record: 100 μM ATP, LRRKtide substrate; read-out: LRRK2_G2019S IC50. The method, then:
as §1

The target of test [1] is c-Abl (His-tagged recombinant human ABL1) (Homo sapiens (Human), UniProt P00519). The test is described as follows: c-abl Kinase Assay (ADP-Glo). The conditions noted are these: ATP (25 μM), Abltide substrate. The method, then:
ADP-Glo assay kit was purchased from Promega. Magnesium chloride (MgCl2), bovine serum albumin (BSA), ethylene glycol-bis(p-aminoethyl ether)-N,N,N′,N′-tetraacetic acid (EGTA), triton X-100, 1,4-dithiothreitol (DTT) and dimethyl sulfoxide (DMSO) were purchased from Sigma-Aldrich. HEPES buffer was purchased from Gibco. ABL1 kinase and Abltide were purchased from Signalchem.
c-Abl kinase activity was measured by Promega's ADP-Glo™ Assay. In this assay, His-tagged recombinant human ABL1 (0.25 ng/μl) is incubated with 5 μL of compounds (0.5% DMSO), 5 μL of Abltide (0.01 μg/μl) and 5 μL of ATP (25 μM) in buffer (50 mM HEPES, 7.5; 10 mM MgCl2; 1 mM EGTA; 0.05% BSA; 0.01% Triton X-100; 2 mM DTT). The assay was started by incubating the reaction mixture in a 96-well plate at 30° C. for 30-min. After the incubation, 25 μL ADP-Glo reagent was added and the reaction was incubated at room temperature for 40-min to stop the reaction and degrade residual ATP. The ADP product was then converted to ATP by adding 50 μL per well of detection reagent. Luminescence was detected after 30-min room temperature incubation with the Molecular device I3X plate reader. The IC50 values were calculated from a series of percent inhibition values determined at a range of inhibitor concentration using software routines as implemented in the GraphPad Prism 7 software and Sigma Plot 13.0.

Data on 27 compounds can be found in patent US11098044B2, “Imidazopyridinyl compounds and use thereof for treatment of neurodegenerative disorders” (1ST Biotherapeutics, Inc., priority 2019, dated 2021).

The structures appear in SMILES notation. Where only a bound is given, the exact number is not on record here.

Sequence of c-Abl (His-tagged recombinant human ABL1) (P00519 whole entry): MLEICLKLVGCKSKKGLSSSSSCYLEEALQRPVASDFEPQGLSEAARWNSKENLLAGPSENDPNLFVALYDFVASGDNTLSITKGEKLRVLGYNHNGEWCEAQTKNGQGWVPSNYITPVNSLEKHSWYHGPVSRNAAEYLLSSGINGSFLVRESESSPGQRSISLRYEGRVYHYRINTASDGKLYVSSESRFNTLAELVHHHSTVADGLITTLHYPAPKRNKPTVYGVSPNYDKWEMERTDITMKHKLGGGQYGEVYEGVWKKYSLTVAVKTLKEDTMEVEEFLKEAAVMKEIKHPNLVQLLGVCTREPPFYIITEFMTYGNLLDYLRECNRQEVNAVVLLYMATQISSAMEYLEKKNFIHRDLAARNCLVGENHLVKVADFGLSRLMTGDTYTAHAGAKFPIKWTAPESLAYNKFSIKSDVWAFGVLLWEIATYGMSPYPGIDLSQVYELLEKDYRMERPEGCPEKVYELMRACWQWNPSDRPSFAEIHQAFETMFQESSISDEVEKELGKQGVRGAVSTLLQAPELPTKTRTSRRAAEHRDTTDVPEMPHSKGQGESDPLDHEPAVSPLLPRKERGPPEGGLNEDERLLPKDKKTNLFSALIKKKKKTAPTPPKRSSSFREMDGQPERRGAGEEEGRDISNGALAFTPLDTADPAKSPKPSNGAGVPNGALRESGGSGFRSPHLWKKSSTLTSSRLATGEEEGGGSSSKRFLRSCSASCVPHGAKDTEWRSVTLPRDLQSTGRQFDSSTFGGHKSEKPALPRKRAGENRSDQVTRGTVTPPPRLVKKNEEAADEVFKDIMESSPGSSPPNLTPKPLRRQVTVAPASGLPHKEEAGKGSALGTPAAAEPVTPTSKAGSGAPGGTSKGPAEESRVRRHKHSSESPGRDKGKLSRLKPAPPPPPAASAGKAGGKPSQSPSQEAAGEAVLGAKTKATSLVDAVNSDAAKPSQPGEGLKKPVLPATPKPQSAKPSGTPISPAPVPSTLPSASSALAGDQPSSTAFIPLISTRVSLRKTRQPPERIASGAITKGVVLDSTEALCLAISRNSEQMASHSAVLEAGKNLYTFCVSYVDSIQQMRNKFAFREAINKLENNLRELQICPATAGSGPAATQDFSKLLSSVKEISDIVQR
Sequence of LRRK2 (WT) (Q5S007 whole entry): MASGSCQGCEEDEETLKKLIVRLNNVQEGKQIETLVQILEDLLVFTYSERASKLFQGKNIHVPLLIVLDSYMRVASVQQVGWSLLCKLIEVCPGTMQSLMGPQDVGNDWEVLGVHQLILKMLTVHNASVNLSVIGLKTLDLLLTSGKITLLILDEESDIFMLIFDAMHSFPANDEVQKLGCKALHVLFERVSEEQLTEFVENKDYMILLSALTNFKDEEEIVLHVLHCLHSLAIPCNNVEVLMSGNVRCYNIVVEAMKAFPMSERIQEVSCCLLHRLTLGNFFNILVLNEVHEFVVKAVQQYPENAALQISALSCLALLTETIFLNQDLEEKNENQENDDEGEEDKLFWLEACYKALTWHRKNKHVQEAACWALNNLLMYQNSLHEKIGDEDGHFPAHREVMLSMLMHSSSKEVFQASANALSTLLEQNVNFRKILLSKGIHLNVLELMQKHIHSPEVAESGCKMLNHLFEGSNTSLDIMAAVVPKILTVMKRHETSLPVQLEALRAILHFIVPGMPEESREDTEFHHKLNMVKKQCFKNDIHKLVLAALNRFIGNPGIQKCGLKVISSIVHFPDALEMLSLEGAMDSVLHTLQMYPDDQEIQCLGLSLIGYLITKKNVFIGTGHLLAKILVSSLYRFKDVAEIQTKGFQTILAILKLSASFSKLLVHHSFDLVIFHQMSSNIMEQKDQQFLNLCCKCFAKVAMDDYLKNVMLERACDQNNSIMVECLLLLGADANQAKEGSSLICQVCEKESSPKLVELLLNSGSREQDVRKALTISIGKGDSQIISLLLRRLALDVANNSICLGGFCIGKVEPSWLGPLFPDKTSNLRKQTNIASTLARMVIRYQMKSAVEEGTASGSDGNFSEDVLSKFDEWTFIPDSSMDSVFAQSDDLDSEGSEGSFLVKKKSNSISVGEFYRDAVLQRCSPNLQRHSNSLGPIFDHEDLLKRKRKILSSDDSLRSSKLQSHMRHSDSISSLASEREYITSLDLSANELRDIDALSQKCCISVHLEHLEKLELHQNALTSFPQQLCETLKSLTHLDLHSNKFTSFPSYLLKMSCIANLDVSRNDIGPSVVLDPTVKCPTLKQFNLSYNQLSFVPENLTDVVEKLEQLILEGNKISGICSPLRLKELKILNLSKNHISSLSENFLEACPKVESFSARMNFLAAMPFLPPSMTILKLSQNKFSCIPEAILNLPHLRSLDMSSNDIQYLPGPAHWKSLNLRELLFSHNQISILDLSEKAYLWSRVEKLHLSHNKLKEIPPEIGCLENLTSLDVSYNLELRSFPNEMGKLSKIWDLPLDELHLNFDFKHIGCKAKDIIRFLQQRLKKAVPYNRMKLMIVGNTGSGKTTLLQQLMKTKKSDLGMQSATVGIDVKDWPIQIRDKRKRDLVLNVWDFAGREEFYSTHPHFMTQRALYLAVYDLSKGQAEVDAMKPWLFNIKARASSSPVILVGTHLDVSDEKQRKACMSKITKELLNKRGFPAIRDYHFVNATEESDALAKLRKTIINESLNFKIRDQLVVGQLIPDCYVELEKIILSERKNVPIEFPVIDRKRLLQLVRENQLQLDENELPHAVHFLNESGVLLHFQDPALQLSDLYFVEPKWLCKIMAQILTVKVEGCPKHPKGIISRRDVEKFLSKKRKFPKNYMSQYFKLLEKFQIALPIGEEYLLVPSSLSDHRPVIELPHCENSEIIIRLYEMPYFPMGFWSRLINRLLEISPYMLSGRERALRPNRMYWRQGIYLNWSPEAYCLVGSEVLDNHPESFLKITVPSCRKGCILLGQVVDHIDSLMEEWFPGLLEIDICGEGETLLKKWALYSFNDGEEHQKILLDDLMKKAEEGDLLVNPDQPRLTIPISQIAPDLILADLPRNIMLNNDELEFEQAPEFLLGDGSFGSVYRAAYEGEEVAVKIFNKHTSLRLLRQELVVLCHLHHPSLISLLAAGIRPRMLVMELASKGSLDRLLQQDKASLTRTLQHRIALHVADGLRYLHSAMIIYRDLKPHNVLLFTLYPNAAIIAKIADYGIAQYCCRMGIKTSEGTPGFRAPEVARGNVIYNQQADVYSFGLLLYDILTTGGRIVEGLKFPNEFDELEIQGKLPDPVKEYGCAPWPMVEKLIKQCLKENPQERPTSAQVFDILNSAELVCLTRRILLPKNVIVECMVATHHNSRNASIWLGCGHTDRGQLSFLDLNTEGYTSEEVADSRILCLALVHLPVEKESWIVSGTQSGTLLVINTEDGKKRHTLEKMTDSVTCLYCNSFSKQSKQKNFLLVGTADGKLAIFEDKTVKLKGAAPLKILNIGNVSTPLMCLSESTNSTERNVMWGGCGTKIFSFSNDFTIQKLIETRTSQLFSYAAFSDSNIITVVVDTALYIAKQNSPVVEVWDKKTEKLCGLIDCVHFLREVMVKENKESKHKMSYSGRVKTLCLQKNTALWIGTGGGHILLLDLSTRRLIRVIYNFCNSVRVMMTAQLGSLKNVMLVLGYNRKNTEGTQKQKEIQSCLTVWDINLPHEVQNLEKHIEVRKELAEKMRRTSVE
Sequence of LRRK2 G2019S (Q5S007 whole entry G2019S): as the sequence (Q5S007 whole entry) above, with G2019S counted along it

As a reminder, the IC50 is the concentration that gives 50% inhibition. On to `COC(=O)c1ccc(C)c(-c2ccc3nc(NC(=O)[C@@H]4C[C@@H]4F)cn3c2)c1` [Example 13, methyl 3-(2-((1S,2S)-2-fluorocyclopropane-1-carboxamido)imidazo[1,2-a]pyridin-6-yl)-4-methylbenzoate], for which the results for the IC50 (against LRRK2 (WT); on LRRK2 G2019S; in test [1]) were over 1000 nM, over 1000 nM and under 10 nM, respectively.

`O=C(Nc1cn2cc(-c3cccc(F)c3-c3ccco3)ccc2n1)[C@@H]1C[C@@H]1F` [Example 65, (1S,2S)-2-fluoro-N-(6-(3-fluoro-2-(furan-2-yl)phenyl)imidazo[1,2-a]pyridin-2-yl)cyclopropanecarboxamide]: the IC50 is over 1000 nM against LRRK2 (WT), over 1000 nM at LRRK2 G2019S and 10 to 100 nM in test [1]. As to `Nc1c(F)cccc1-c1ccc2nc(NC(=O)[C@@H]3C[C@@H]3F)cn2c1` [Example 90, (1S,2S)—N-(6-(2-amino-3-fluorophenyl)imidazo[1,2-a]pyridin-2-yl)-2-fluorocyclopropanecarboxamide], the IC50 in test [1] was under 10 nM. For `Cc1c(F)cccc1-c1ccc2nc(NC(=O)[C@@H]3C[C@H]3F)cn2c1` (stereo in doubt) [Example 72, 2-fluoro-N-(6-(3-fluoro-2-methylphenyl)imidazo[1,2-a]pyridin-2-yl)cyclopropanecarboxamide], the IC50 was 10 to 100 nM at LRRK2 (WT), 10 to 100 nM on LRRK2 G2019S and under 10 nM in test [1]. `Cc1c(F)cncc1-c1ccc2nc(NC(=O)[C@@H]3C[C@@H]3F)cn2c1` [Example 14, (1S,2S)-2-fluoro-N-(6-(5-fluoro-4-methylpyridin-3-yl)imidazo[1,2-a]pyridin-2-yl)cyclopropane-1-carboxamide]: the IC50 is 101 to 1000 nM at LRRK2 (WT), 101 to 1000 nM at LRRK2 G2019S and under 10 nM in test [1]. Consider `CN(C)c1c(F)cccc1-c1ccc2nc(NC(=O)[C@@H]3C[C@@H]3F)cn2c1` [Example 93, (1S,2S)—N-(6-(2-(dimethylamino)-3-fluorophenyl)imidazo[1,2-a]pyridin-2-yl)-2-fluorocyclopropanecarboxamide], for which the half-inhibitory concentration (IC50) in test [1] was 10 to 100 nM.

On to `O=C(Nc1cn2cc(-c3cnc4[nH]ccc4c3Cl)ccc2n1)[C@@H]1C[C@@H]1F` [Example 87, (1S,2S)—N-(6-(4-chloro-1H-pyrrolo[2,3-b]pyridin-5-yl)imidazo[1,2-a]pyridin-2-yl)-2-fluorocyclopropanecarboxamide], for which the IC50 in test [1] was under 10 nM. In the case of `Cc1ccccc1-c1ccc2nc(NC(=O)[C@@H]3C[C@@H]3F)cn2c1` [Example 88, (1S,2S)-2-fluoro-N-(6-(o-tolyl)imidazo[1,2-a]pyridin-2-yl)cyclopropanecarboxamide], the IC50 in test [1] is under 10 nM. Same read-out and setting: for `CCc1c(F)cccc1-c1ccc2nc(NC(=O)[C@@H]3C[C@@H]3F)cn2c1` [Example 95, (1S,2S)—N-(6-(2-ethyl-3-fluorophenyl)imidazo[1,2-a]pyridin-2-yl)-2-fluorocyclopropanecarboxamide] the value was under 10 nM. For the compound `Cc1cc2nc[nH]c2cc1-c1ccc2nc(NC(=O)[C@@H]3C[C@@H]3F)cn2c1` [Example 94, (1S,2S)-2-fluoro-N-(6-(5-methyl-1H-benzo[d]imidazol-6-yl)imidazo[1,2-a]pyridin-2-yl)cyclopropanecarboxamide], in test [1], the IC50 is under 10 nM. As for `Cc1ccc2ocnc2c1-c1ccc2nc(NC(=O)[C@@H]3C[C@@H]3F)cn2c1` [Example 102, (1S,2S)-2-fluoro-N-(6-(5-methylbenzo[d]oxazol-4-yl)imidazo[1,2-a]pyridin-2-yl)cyclopropanecarboxamide], in test [1], the half-maximal inhibitory concentration (IC50) was under 10 nM. The same measure, in the same setting: for `Cc1cc2ncoc2cc1-c1ccc2nc(NC(=O)[C@@H]3C[C@@H]3F)cn2c1` [Example 99, (1S,2S)-2-fluoro-N-(6-(5-methylbenzo[d]oxazol-6-yl)imidazo[1,2-a]pyridin-2-yl)cyclopropanecarboxamide] the value was under 10 nM; for `Cc1c(F)cccc1-c1ccc2nc(NC(=O)[C@@H]3C[C@@H]3F)c(Br)n2c1` [Example 58, (1S,2S)—N-(3-bromo-6-(3-fluoro-2-methylphenyl)imidazo[1,2-a]pyridin-2-yl)-2-fluorocyclopropane-1-carboxamide], 10 to 100 nM; for `O=C(Nc1cn2cc(-c3ccccc3C(F)(F)F)ccc2n1)[C@@H]1C[C@@H]1F` [Example 96], 10 to 100 nM. The same measure, in the same setting: under `O=C(Nc1cn2cc(-c3cccc(F)c3O)ccc2n1)[C@@H]1C[C@@H]1F` [Example 89, (1S,2S)-2-fluoro-N-(6-(3-fluoro-2-hydroxyphenyl)imidazo[1,2-a]pyridin-2-yl)cyclopropanecarboxamide] stands under 10 nM. Take `Cc1ccc2[nH]cnc2c1-c1ccc2nc(NC(=O)[C@@H]3C[C@@H]3F)cn2c1` [Example 100, (1S,2S)-2-fluoro-N-(6-(5-methyl-1H-benzo[d]imidazol-4-yl)imidazo[1,2-a]pyridin-2-yl)cyclopropane-1-carboxamide]: the IC50 in test [1] was in the range of 10 to 100 nM. The same measure, in the same setting: for `Cc1c(-c2ccc3nc(NC(=O)[C@@H]4C[C@@H]4F)cn3c2)ccc2ncsc12` [Example 104, (1S,2S)-2-fluoro-N-(6-(7-methylbenzo[d]thiazol-6-yl)imidazo[1,2-a]pyridin-2-yl)cyclopropanecarboxamide] the value was under 10 nM; for `CNc1c(F)cccc1-c1ccc2nc(NC(=O)[C@@H]3C[C@@H]3F)cn2c1` [Example 98, (1S,2S)-2-fluoro-N-(6-(3-fluoro-2-(methylamino)phenyl)imidazo[1,2-a]pyridin-2-yl)cyclopropanecarboxamide], under 10 nM. In the case of `Cc1c(-c2ccc3nc(NC(=O)[C@@H]4C[C@@H]4F)cn3c2)cnc2[nH]ccc12` [Example 86, (1S,2S)-2-fluoro-N-(6-(4-methyl-1H-pyrrolo[2,3-b]pyridin-5-yl)imidazo[1,2-a]pyridin-2-yl)cyclopropanecarboxamide], in test [1], the IC50 was under 10 nM.

Consider `COc1ccncc1-c1ccc2nc(NC(=O)[C@@H]3C[C@@H]3F)cn2c1` [Example 48, (1S,2S)-2-fluoro-N-(6-(4-methoxypyridin-3-yl)imidazo[1,2-a]pyridin-2-yl)cyclopropane-1-carboxamide], for which the IC50 against LRRK2 (WT) and on LRRK2 G2019S was 10 to 100 nM in each case. As for `Cc1c(F)cccc1-c1ccc2nc(NC(=O)C3CC3(F)F)cn2c1` (centres unmarked) [Example 77, 2,2-difluoro-N-(6-(3-fluoro-2-methylphenyl)imidazo[1,2-a]pyridin-2-yl)cyclopropanecarboxamide], the IC50 is 101 to 1000 nM at LRRK2 (WT) and 10 to 100 nM on LRRK2 G2019S. As for `Cc1cc2ncsc2cc1-c1ccc2nc(NC(=O)[C@@H]3C[C@@H]3F)cn2c1` [Example 103, (1S,2S)-2-fluoro-N-(6-(5-methylbenzo[d]thiazol-6-yl)imidazo[1,2-a]pyridin-2-yl)cyclopropanecarboxamide], in test [1], the IC50 was under 10 nM.

With `CC(C)c1c(F)cccc1-c1ccc2nc(NC(=O)[C@@H]3C[C@@H]3F)cn2c1` [Example 105, (1S,2S)-2-fluoro-N-(6-(3-fluoro-2-isopropylphenyl)imidazo[1,2-a]pyridin-2-yl)cyclopropanecarboxamide], the IC50 in test [1] was 101 to 1000 nM.

For `Cc1cccc(C)c1-c1ccc2nc(NC(=O)[C@@H]3C[C@@H]3F)cn2c1` [Example 42, (1S,2S)—N-(6-(2,6-dimethylphenyl)imidazo[1,2-a]pyridin-2-yl)-2-fluorocyclopropane-1-carboxamide], the IC50 against LRRK2 (WT) and on LRRK2 G2019S was 101 to 1000 nM throughout. Regarding `Cc1cc2[nH]ccc2cc1-c1ccc2nc(NC(=O)[C@@H]3C[C@@H]3F)cn2c1` [Example 92, (1S,2S)-2-fluoro-N-(6-(6-methyl-1H-indol-5-yl)imidazo[1,2-a]pyridin-2-yl)cyclopropanecarboxamide], the IC50 in test [1] was under 10 nM.

As for `Cc1cc2cc[nH]c2cc1-c1ccc2nc(NC(=O)[C@@H]3C[C@@H]3F)cn2c1` [Example 91, (1S,2S)-2-fluoro-N-(6-(5-methyl-1H-indol-6-yl)imidazo[1,2-a]pyridin-2-yl)cyclopropanecarboxamide], in test [1], the IC50 was under 10 nM.

As to `O=C(Nc1cn2cc(-c3cccc(F)c3C3CC3)ccc2n1)[C@@H]1C[C@@H]1F` [Example 97, (1S,2S)—N-(6-(2-cyclopropyl-3-fluorophenyl)imidazo[1,2-a]pyridin-2-yl)-2-fluorocyclopropanecarboxamide], in test [1], the 50% inhibitory concentration (IC50) was under 10 nM.
